Measurements published in patent publication US11504382B2, “Tricyclic inhibitors of Hepatitis B virus” (Antios Therapeutics, Inc., priority 2018, dated 2022).
pEC50: −log10 of the molar value.

Tested on: HBV
Assay: HBV inhibition assay in HepAD38 cells (extracellular HBV DNA by direct qPCR)
Assay type: cell-based, Hepatitis B virus
Settings: Hepatitis B virus, 96 hours; for pEC50: 8-point dose-response curve, read-out: HBV inh EC50; for inhibition at 0.05 µM / inhibition at 0.1 µM: relative to non-treated reference, read-out: Anti HBV Activity (conc μM)

SMILES	pEC50	inhibition at 0.05 µM	inhibition at 0.1 µM
Cc1cc(NC(=O)c2c3c(cn2C)S(=O)(=O)NC2CN(c4cccnc4)CC2CO3)ccc1F (stereo not drawn) [Example E48, cis-N-(4-fluoro-3-methylphenyl)-7-methyl-2-(pyridin-3-yl)-2,3,3a,4,10,10a-hexahydro-1H,7H-dipyrrolo[3,4-b:3′,4′-f][1,4,5]oxathiazocine-8-carboxamide 5,5-dioxide]	> 6.00		
Cc1cc(NC(=O)c2c3c(cn2C)S(=O)(=O)NC2CN(c4nnco4)CC2CO3)ccc1F (stereo not drawn) [Example E49, cis-N-(4-fluoro-3-methylphenyl)-7-methyl-2-(1,3,4-oxadiazol-2-yl)-2,3,3a,4,10,10a-hexahydro-1H,7H-dipyrrolo[3,4-b:3′,4′-f][1,4,5]oxathiazocine-8-carboxamide 5,5-dioxide]	> 6.00		
Cc1nnc(C(=O)N2CC3COc4c(cn(C)c4C(=O)Nc4cc(F)c(F)c(F)c4)S(=O)(=O)NC3C2)o1 (stereo not drawn) [Example E51, cis-7-methyl-2-(5-methyl-1,3,4-oxadiazole-2-carbonyl)-N-(3,4,5-trifluorophenyl)-2,3,3a,4,10,10a-hexahydro-1H,7H-dipyrrolo[3,4-b:3′,4′-f][1,4,5]oxathiazocine-8-carboxamide 5,5-dioxide]	> 6.00	> 50%	
Cc1cc(C(=O)N2CC3COc4c(cn(C)c4C(=O)Nc4ccc(F)c(C)c4)S(=O)(=O)NC3C2)no1 (stereo not drawn) [Example E52, cis-N-(4-fluoro-3-methylphenyl)-7-methyl-2-(5-methylisoxazole-3-carbonyl)-2,3,3a,4,10,10a-hexahydro-1H,7H-dipyrrolo[3,4-b:3′,4′-f][1,4,5]oxathiazocine-8-carboxamide 5,5-dioxide]	> 6.00	> 50%	
Cc1cc(NC(=O)c2c3c(cn2C)S(=O)(=O)NC2CN(C(=O)c4ccc(O)nc4)CC2CO3)ccc1F (stereo not drawn) [Example E53, cis-N-(4-fluoro-3-methylphenyl)-2-(6-hydroxynicotinoyl)-7-methyl-2,3,3a,4,10,10a-hexahydro-1H,7H-dipyrrolo[3,4-b:3′,4′-f][1,4,5]oxathiazocine-8-carboxamide 5,5-dioxide]			< 50%
Cc1cc(NC(=O)c2c3c(cn2C)S(=O)(=O)NC2CN(C(=O)c4cccnc4)CC2CO3)ccc1F (stereo not drawn) [Example E54, cis-N-(4-fluoro-3-methylphenyl)-7-methyl-2-nicotinoyl-2,3,3a,4,10,10a-hexahydro-1H,7H-dipyrrolo[3,4-b:3′,4′-f][1,4,5]oxathiazocine-8-carboxamide 5,5-dioxide]			> 50%
Cn1cc2c(c1C(=O)Nc1cc(F)c(F)c(F)c1)OCC1CN(C(=O)c3c[nH]c(=O)cn3)CC1NS2(=O)=O (stereo not drawn) [Example E56, cis-7-methyl-2-(5-oxo-4,5-dihydropyrazine-2-carbonyl)-N-(3,4,5-trifluorophenyl)-2,3,3a,4,10,10a-hexahydro-1H,7H-dipyrrolo[3,4-b:3′,4′-f][1,4,5]oxathiazocine-8-carboxamide 5,5-dioxide]			< 50%
Cn1cc(C(=O)N2CC3COc4c(cn(C)c4C(=O)Nc4cc(F)c(F)c(F)c4)S(=O)(=O)NC3C2)cn1 (stereo not drawn) [Example E57, cis-7-methyl-2-(1-methyl-1H-pyrazole-4-carbonyl)-N-(3,4,5-trifluorophenyl)-2,3,3a,4,10,10a-hexahydro-1H,7H-dipyrrolo[3,4-b:3′,4′-f][1,4,5]oxathiazocine-8-carboxamide 5,5-dioxide]			< 50%
Cn1cc2c(c1C(=O)Nc1cc(F)c(F)c(F)c1)OCC1CN(C(=O)c3nccs3)CC1NS2(=O)=O (stereo not drawn) [Example E58, cis-7-methyl-2-(thiazole-2-carbonyl)-N-(3,4,5-trifluorophenyl)-2,3,3a,4,10,10a-hexahydro-1H,7H-dipyrrolo[3,4-b:3′,4′-f][1,4,5]oxathiazocine-8-carboxamide 5,5-dioxide]	> 6.00	> 50%	
